In brackets after ≈: the same amount, converted by molar mass. Where a name gives a salt, the structure may show the parent alone. Read-outs that look alike come from different tables or passages of the source. Values belong to the compound of their own block, whether it stands above or below them.
Key:
[1] = Solubility; type: physicochemical; details: for solubility: organic solvent or mixture
[2] = test system: leaf discs of tobacco without (GUS-) introduced β-glucuronidase genes; type: cell-based, Nicotiana tabacum 'Wisconsin 38'; details: test compounds at several concentrations up to 250 μM in MSO
[3] = test system: leaf discs of tobacco with (GUS+) introduced β-glucuronidase genes; type: cell-based, Nicotiana tabacum 'Wisconsin 38'; details: test compounds at several concentrations up to 250 μM in MSO
[4] = target: β-glucuronidase from E. coli (Escherichia coli, UniProt P05804); assay: Hydrolysis by β-glucuronidase (GUS), HPLC/TLC; type: biochemical; details: 37° C.
β-glucuronidase from E. coli, sequence (P05804 whole entry, looked up): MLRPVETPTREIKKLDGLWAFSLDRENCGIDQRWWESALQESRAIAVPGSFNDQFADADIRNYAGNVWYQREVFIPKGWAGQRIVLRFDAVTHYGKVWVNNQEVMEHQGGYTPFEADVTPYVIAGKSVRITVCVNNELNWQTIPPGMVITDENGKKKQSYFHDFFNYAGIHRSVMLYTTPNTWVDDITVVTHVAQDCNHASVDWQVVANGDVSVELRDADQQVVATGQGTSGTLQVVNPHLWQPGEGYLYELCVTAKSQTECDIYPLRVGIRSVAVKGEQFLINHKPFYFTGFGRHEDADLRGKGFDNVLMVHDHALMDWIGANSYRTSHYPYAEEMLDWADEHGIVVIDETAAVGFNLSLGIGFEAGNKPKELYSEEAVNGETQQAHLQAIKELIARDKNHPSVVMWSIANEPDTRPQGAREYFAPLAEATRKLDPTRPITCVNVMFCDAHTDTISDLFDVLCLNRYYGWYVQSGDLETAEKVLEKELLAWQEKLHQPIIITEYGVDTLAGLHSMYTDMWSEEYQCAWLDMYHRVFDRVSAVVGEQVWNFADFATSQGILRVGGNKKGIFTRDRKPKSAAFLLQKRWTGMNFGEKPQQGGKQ
Description: […] […] This confirms the identity of the product as a conjugate of BA and β-D-glucuronic acid.
[…] The presence of hydrolysis products is then determined using HPLC and TLC.

[5] = test system: potato stem segments; assay: Carbohydrate sources, potato stem segments, 9 weeks; type: cell-based; details: for # of Shoots per explant / activity at 5000 µg/mL / activity at 10000 µg/mL: 9 weeks; for activity at 5000 µg/mL / activity at 10000 µg/mL: Solanum tuberosum
From the text: Similar results are observed with potato stem segments after 9 weeks of culturing.

[6] = test system: potato stem segments with pAH-Xyl; assay: Selection on D-xylose, potato transformed with pAH-Xyl; type: cell-based
Description: (§1) Shoots are regenerated from potato stem segments treated with various concentrations of sucrose and D-xylose. The number of shoots are counted after 11 weeks of selection. 105 explants are tested per treatment.

[7] = test system: potato stem segments with control (Kanamycin resistant gene); assay: Selection on D-xylose, potato transformed with control (kanamycin resistant gene); type: cell-based
Description: as §1

[8] = test system: potato stem segments; assay: D-xylose as carbohydrate source during shoot regeneration; type: cell-based
Description: Explants are produced and treated as described above under "selection of transformed tissue", except that the selection/regeneration substrate was not supplemented with kanamycin or cabenicillin, and that plant tissue is not transformed. Thus the only subcultivation step is when the explants are transferred from the co-cultivation substrate to the selection/regeneration substrate which is supplemented with xylose at the concentrations indicated below. The number of regenerated shoots is recorded after 12 weeks.

[9] = test system: sugarbeet cotyledon explants; assay: Effect of D-xylose in sugarbeets with and without light; type: cell-based
Description: Sugarbeet is transformed by the so-called cot-pet method as described in PCT Patent Application No. PCT DK92/00108 wherein cotyledons including the petiole are used as explants. Seedlings are derived from seeds germinated and grown for 4-7 weeks at 12° C. in a 16 h day/8 h night regime. Cotyledons are excised 2-3 mm below the node, tawn apart and cultured either in the dark or in light and in the presence or absence of xylose.

[10] = test system: non-transformed potato stem segments; assay: Inhibition by mannose of regeneration of shoots; type: cell-based, Solanum tuberosum; details: mannose 0 g/l
Description: This substrate is referred to hereafter as "selection/regeneration substrate". Regenerated plants are produced as described above, except that the shoot segments are not co-cultured with bacteria and the washing procedure consequential thereon is omitted. […] In general, mannose cannot be used as a carbohydrate source in most plant species. When mannose is added to plants it is metabolized and mannose 6-phosphate accumulates. Mannose 6-phosphate can be converted to fructose 6-phosphate by mannose 6-phosphate isomerase, the amount converted being dependent upon the activity of the isomerase. Such fructose 6-phosphate may be utilized by plants, but in principal high levels of mannose (whether or not an alternative carbohydrate source is available) are toxic to plants.

[11] = test system: explants; assay: Inhibition of the toxicity of mannose by methyl-3-O-glucose; type: cell-based; details: MOG 0 g/l; mannose 0 g/l; sucrose 10 g/l
From the text: Example 25 is repeated except that the selection/regeneration substrate is supplemented with methyl 3-0-glucose (MOG) at the concentrations indicated in Table 25. The percentage of live explants is registered after 8 weeks.

[12] = test system: Wild type explants; assay: Shoot regeneration on mannose, sucrose and methyl-3-O-glucose, wild type; type: cell-based; details: sucrose 10 g/l, no mannose, no methyl 3O-glucose; Wild type tissue
[13] = test system: explants transgenic for the mannose 6-phosphate isomerase gene; assay: Shoot regeneration on mannose, sucrose and methyl-3-O-glucose, Man-6-P-isomerase; type: cell-based; details: sucrose 10 g/l, no mannose, no methyl 3O-glucose; Transgenic tissue
[14] = 10 g/l, read-out: Size % of control
[15] = 10 g/l, read-out: explants alive % of control
[16] = sucrose 2.5 g/l, D-xylose 2.5 g/l
[17] = sucrose 2.5 g/l, D-xylose 2.5 g/l, 11 weeks, 105 explants
[18] = sucrose 2.5 g/l, D-xylose 5.0 g/l
[19] = sucrose 2.5 g/l, D-xylose 7.5 g/l
[20] = sucrose 5.0 g/l, D-xylose 2.5 g/l
[21] = sucrose 5.0 g/l, D-xylose 5.0 g/l
[22] = sucrose 5.0 g/l, D-xylose 7.5 g/l
[23] = sucrose 10.0 g/l, D-xylose 2.5 g/l
[24] = sucrose 10.0 g/l, D-xylose 5.0 g/l
[25] = sucrose 10.0 g/l, D-xylose 7.5 g/l
[26] = D-xylose 10 g/l, sucrose 0 g/l, 2 weeks in dark and 1 week in light
[27] = D-xylose 10 g/l, sucrose 0 g/l, 3 weeks light
[28] = D-xylose 10 g/l, sucrose 10 g/l, 2 weeks in dark and 1 week in light
[29] = D-xylose 10 g/l, sucrose 10 g/l, 3 weeks light
[30] = D-xylose 0 g/l, sucrose 10 g/l, 2 weeks in dark and 1 week in light
[31] = D-xylose 0 g/l, sucrose 10 g/l, 3 weeks light

solubility ([1]; 50% aqueous methanol containing 25% acetic acid): 2400 µg/mL (≈ 5.99 mM) | solubility in words ([1]; water or alcohol): only sparingly soluble
Structure (SMILES): NC(=O)[C@H]1O[C@@H](n2cnc(NCc3ccccc3)c3ncnc2-3)[C@H](O)[C@@H](O)[C@@H]1O [BA3GNamide, 3-β-D-glucupyranuronamido-6-benzylaminopurine]
Shoot formation, GUS- [2]: + ("+" means shoot formation at concentrations below 250 μM) | Shoot formation, GUS+ [3]: + ("+" means shoot formation at concentrations below 250 μM)

Structure (SMILES): O=C(O)C=Cc1ccccc1O[C@@H]1O[C@H](C(=O)O)[C@@H](O)[C@H](O)[C@H]1O [CouGN, 2-hydroxycinnamyl-β-D-glucopyranuronic acid]
conversion to o-coumaric acid by GUS ([4]; 5 mg in 1 ml, 1000 units Sigma Type G5897, 12 hours, TLC): 93.4% | solubility ([1]; aqueous buffer and 50% alcohol, aqueous buffer, pH 7, and 50% aqueous alcohol): 5000 µg/mL (≈ 14.7 mM)

Structure (SMILES): O=C[C@H](O)[C@@H](O)[C@H](O)CO [D-xylose]
# of Shoots per explant ([5]; 5 g/l): 0 | # of Shoots per explant ([5]; 10 g/l): 0 | activity at 5000 µg/mL ([5]; 5 g/l, read-out: Size % of control): 17% | activity at 5000 µg/mL ([5]; 5 g/l, read-out: explants alive % of control): 0% | activity at 10000 µg/mL [5, 14]: 13% | activity at 10000 µg/mL [5, 15]: 0% | effect on shoot regeneration, in words ([5]; potato stem segments when sucrose is present): inhibitor of shoot regeneration | GUS+ Shoots [6, 16]: 0 | GUS+ Shoots/explants [6, 16]: 0 | No. Shoots [6, 17]: 0 | GUS+ Shoots [6, 18]: 0 | GUS+ Shoots/explants [6, 18]: 0 | No. Shoots [6, 18]: 0 | GUS+ Shoots [6, 19]: 0 | GUS+ Shoots/explants [6, 19]: 0 | No. Shoots [6, 19]: 0 | GUS+ Shoots [6, 20]: 0 | GUS+ Shoots/explants [6, 20]: 0 | No. Shoots [6, 20]: 0 | GUS+ Shoots [6, 21]: 0 | GUS+ Shoots/explants [6, 21]: 0 | No. Shoots [6, 21]: 0 | GUS+ Shoots [6, 22]: 0 | GUS+ Shoots/explants [6, 22]: 0 | No. Shoots [6, 22]: 0 | GUS+ Shoots [6, 23]: 5 | GUS+ Shoots/explants [6, 23]: 0.05 | GUS+ shoots/no. Shoots (%) [6, 23]: 6% | No. Shoots [6, 23]: 84 | GUS+ Shoots [6, 24]: 0 | GUS+ Shoots/explants [6, 24]: 0 | GUS+ shoots/no. Shoots (%) [6, 24]: 0% | No. Shoots [6, 24]: 20 | GUS+ Shoots [6, 25]: 4 | GUS+ Shoots/explants [6, 25]: 0.04 | GUS+ shoots/no. Shoots (%) [6, 25]: 57.1% | No. Shoots [6, 25]: 7 | GUS+ Shoots [7, 16]: 0 | GUS+ Shoots/explants [7, 16]: 0 | No. Shoots [7, 17]: 0 | GUS+ Shoots [7, 18]: 0 | GUS+ Shoots/explants [7, 18]: 0 | No. Shoots [7, 18]: 0 | GUS+ Shoots [7, 19]: 0 | GUS+ Shoots/explants [7, 19]: 0 | No. Shoots [7, 19]: 0 | GUS+ Shoots [7, 20]: 0 | GUS+ Shoots/explants [7, 20]: 0 | No. Shoots [7, 20]: 0 | GUS+ Shoots [7, 21]: 0 | GUS+ Shoots/explants [7, 21]: 0 | No. Shoots [7, 21]: 0 | GUS+ Shoots [7, 22]: 0 | GUS+ Shoots/explants [7, 22]: 0 | No. Shoots [7, 22]: 0 | GUS+ Shoots [7, 23]: 0 | GUS+ Shoots/explants [7, 23]: 0 | GUS+ shoots/no. Shoots (%) [7, 23]: 0% | No. Shoots [7, 23]: 32 | GUS+ Shoots [7, 24]: 0 | GUS+ shoots/no. Shoots (%) [7, 24]: 0% | No. Shoots [7, 24]: 5 | GUS+ Shoots [7, 25]: 0 | GUS+ Shoots/explants [7, 25]: 0 | GUS+ shoots/no. Shoots (%) [7, 25]: 0% | No. Shoots [7, 25]: 2 | inhibition of shoot regeneration, in words ([8]; when sucrose is present, compared to D-mannose): weak inhibitor of shoot regeneration | Number of regenerated shoots each stem segment ([8]; xylose 5 g/l, sucrose 0 g/l, 12 weeks): 0 | Number of regenerated shoots each stem segment ([8]; xylose 5 g/l, sucrose 10 g/l): 3 | Number of regenerated shoots each stem segment ([8]; xylose 10 g/l, sucrose 0 g/l): 0 | Number of regenerated shoots each stem segment ([8]; xylose 10 g/l, sucrose 10 g/l): 0 | Number of regenerated shoots each stem segment ([8]; xylose 20 g/l, sucrose 0 g/l): 0 | Number of regenerated shoots each stem segment ([8]; xylose 20 g/l, sucrose 10 g/l): 0 | % expl. with shoots [9, 26]: 13% | Green (%) [9, 26]: 77% | weight (wet) [9, 26]: 0.37 g | % expl. with shoots [9, 27]: 90% | Green (%) [9, 27]: 90% | weight (wet) [9, 27]: 1.53 g | % expl. with shoots [9, 28]: 80% | Green (%) [9, 28]: 97% | weight (wet) [9, 28]: 0.89 g | % expl. with shoots [9, 29]: 97% | Green (%) [9, 29]: 100% | weight (wet) [9, 29]: 5.47 g

Structure (SMILES): CC(C)=CCNc1nc(S[C@@H]2O[C@H](C(=O)O)[C@@H](O)[C@H](O)[C@H]2O)nc2[nH]cnc12 [IP2SGN sodium salt, 6-(3-methyl-but-2-enylamino)purine-2-yl-1-thio-β-D-glucopyranuronic acid, sodium salt]
partial removal of the glucuronide by GUS ([4]; 2500 Fishman units, 48 hours, HPLC): 65% | solubility in words ([1]; 50% aqueous alcohol): sparingly soluble | Shoot formation, GUS- [2]: + ("+" means shoot formation at concentrations below 250 μM) | Shoot formation, GUS+ [3]: + ("+" means shoot formation at concentrations below 250 μM)

Structure (SMILES): OC[C@H]1O[C@@](CO)(O[C@H]2O[C@H](CO)[C@@H](O)[C@H](O)[C@H]2O)[C@@H](O)[C@@H]1O [sucrose]
Regenerated shoots/explant (%) ([10]; sucrose 10 g/l): 50% | Regenerated shoots/explant (%) ([10]; sucrose 20 g/l): 53% | # of Shoots per explant ([5]; 10 g/l): 2.8 | activity at 10000 µg/mL [5, 14]: 100% | activity at 10000 µg/mL [5, 15]: 100% | Number of regenerated shoots each stem segment ([8]; xylose 0 g/l, sucrose 10 g/l): 6 | percentage of live explants [11]: 100 | % expl. with shoots [9, 30]: 50% | Green (%) [9, 30]: 97% | weight (wet) [9, 30]: 1.38 g | % expl. with shoots [9, 31]: 98% | Green (%) [9, 31]: 100% | weight (wet) [9, 31]: 7.41 g | Regeneration of shoots [12]: 1.7 shoots/explant | Regeneration of shoots [13]: 1.4 shoots/explant
